In paper PMC9381947 (Antiviral Research, 2022):
Entries after “also recorded” stand apart in the source; their conditions may differ. Like-named read-outs stand apart in the source and are kept apart here.

Experiments:
[1] = target: T1, SARS-CoV-2 NSP13 helicase (Severe acute respiratory syndrome coronavirus 2, UniProt P0DTD1); test: biochemical; conditions: for NSP13 helicase inhibition relative to PUG: compared with PUG; for inhibition at 20 µM: read-out: inhibitory activity against NSP13, confirmation screen
[2] = target: T1, SARS-CoV-2 NSP13 helicase; test: Gel-based DNA unwinding assay; assay type: biochemical; conditions: PUG at concentrations over 1 μM
[3] = target: NSP13/DNA complex (Severe acute respiratory syndrome coronavirus 2, UniProt P0DTD1); test: Electrophoretic mobility shift assay; assay type: biochemical, SARS-CoV-2; conditions: pre-incubation of NSP13 with compound, FAM-labeled 5ˊ flap DNA
[4] = target: SARS-CoV-2 NSP13 ATPase activity (Severe acute respiratory syndrome coronavirus 2, UniProt P0DTD1); test: Luciferase-coupled ATP assay; assay type: biochemical
[5] = target: SARS-CoV-2 NSP13 (Severe acute respiratory syndrome coronavirus 2, UniProt P0DTD1); test: Surface plasmon resonance; assay type: binding; conditions: SPR, NSP13 coupled to CM5 chip
[6] = test system: human adenovirus (HAdV) type 7 (HAdV-7); test: Antiviral assay in A549 cells; conditions: 48 h, qRT-PCR, listed as PUG
[7] = IC50, DNA unwinding activity of NSP13, text and figures
[8] = read-out: IC50 against NSP13 helicase activity, Table 1
[9] = IC50 against NSP13 helicase activity, Table 1
[10] = read-out: IC50 against NSP13 helicase activity

## O=C1OC[C@H]2OC(O)[C@H](O)[C@@H](O)[C@@H]2OC(=O)c2cc(O)c(O)c(O)c2-c2c(O)c(O)c3oc(=O)c4c(c(O)c(O)c5oc(=O)c2c3c54)-c2c1cc(O)c(O)c2O (mixture of isomers) [PUL, punicalin]
[1]; [7]
  IC50: ~0.54 µM
[1]
  NSP13 helicase inhibition relative to PUG: comparable inhibitory activity
[2]
  helicase activity of NSP13 in gel-based DNA unwinding assay: slightly weak inhibitory effect than PUG
[3]
  NSP13/DNA complex formation (EMSA): reduced the complex formation in a concentration-dependent manner

## O=c1cc(-c2ccccc2)oc2cc(O)c(O)c(O)c12 [Baicalein, reference compound]
[1]
  inhibition at 20 µM: > 70%

## O=C(N/N=C/c1cc(O)c(O)cc1O)c1cc2ccccc2cc1O [Dyngo-4a, reference compound]
[1]; [8]
  IC50: 0.63 µM

## O=c1oc2c(O)c(O)cc3c(=O)oc4c(O)c(O)cc1c4c23 [EA, ellagic acid]
[1]; IC50, DNA unwinding activity of NSP13, text
  IC50: ~2.8 µM
[1]
  NSP13 helicase inhibition relative to PUG: about six times weaker
[4]; 10 μM ATP
  inhibition of ATP hydrolysis by NSP13: much weaker inhibition
[3]
  NSP13/DNA complex formation (EMSA): reduced the complex formation in a concentration-dependent manner; also recorded: much weaker inhibition

## Oc1cc(O)c2c(c1)O[C@H](c1cc(O)c(O)c(O)c1)[C@H](O)[C@H]2c1c(O)cc(O)c2c1O[C@H](c1cc(O)c(O)c(O)c1)[C@H](O)[C@H]2c1c(O)cc(O)c2c1O[C@H](c1cc(O)c(O)c(O)c1)[C@H](O)C2 [Katacine]
[1]; [9]
  IC50: 5.98 µM

## CC(C)[C@H](NC(=O)CCCCCN1C(=O)C=CC1=O)C(=O)N[C@@H](CCCNC(N)=O)C(=O)Nc1ccc(COC(=O)Oc2ccc([N+](=O)[O-])cc2)cc1 [MC-Val-Cit-PABC-PNP]
[1]; [10]
  IC50: 2.45 µM

## O=c1c(O)c(-c2cc(O)c(O)c(O)c2)oc2cc(O)cc(O)c12 [Myricetin, reference compound]
[1]
  inhibition at 20 µM: > 70%

## O=C1O[C@@H]2[C@@H](OC(=O)c3cc(O)c(O)c(O)c3-c3c1cc(O)c(O)c3O)[C@H](O)O[C@@H]1COC(=O)c3cc(O)c(O)c(O)c3-c3c(O)c(O)c4oc(=O)c5c(c(O)c(O)c6oc(=O)c3c4c65)-c3c(cc(O)c(O)c3O)C(=O)O[C@@H]21 [Punicalagin, 2,3-hexahydroxydiphenoyl-gallagyl-D-glucose]
[1]; [7]
  IC50: 0.427 µM
[1]; [9]
  IC50: 0.43 µM
[2]
  helicase activity of NSP13 in gel-based DNA unwinding assay: nearly abolished
[5]
  Kd: 0.0216 µM
[4]; with increasing concentrations of PUG
  Km of NSP13 ATPase: increased
[6]
  antiviral effect against HAdV-7: did not show detectable antiviral effects

## CC(C)c1cc2c(c(O)c1O)[C@@]13CCCC(C)(C)[C@@H]1[C@H](OC3=O)[C@H]2O [Rosmanol]
[1]; [9]
  IC50: 8.93 µM

## O=c1cc(-c2ccc(O)cc2)oc2cc(O)c(O)c(O)c12 [Scutellarein, reference compound]
[1]
  inhibition at 20 µM: > 70%

## O=C(O)CSc1cc(NS(=O)(=O)c2ccc(Br)cc2)c2ccccc2c1O [UMI-77, reference compound]
[1]; [10]
  IC50: 4.38 µM

## O=C([O-])c1cc(=O)[nH]c(=O)[nH]1.O=C([O-])c1cc(=O)[nH]c(=O)[nH]1.[Zn+2] [Zinc Orotate]
[1]; [8]
  IC50: 4.12 µM

## Bismuth subsalicylat [reference compound]
[1]; 20 µM
  inhibitory activity against NSP13, confirmation screen: more than 70%

## Tannic acid
[1]; [8]
  IC50: 1.25 µM
